According to patent US10543183B2, “Treatment and diagnosis of melanoma” (The Rockefeller University, priority 2012, dated 2020):
Structures can show the parent of a compound that is named as a salt.

What was measured:
[1] = system: breast, renal, pancreatic and lung cancer cell lines; test: trans-well matrigel invasion assay, other cancer types; assay type: cell-based, human
Procedure: The ability of cancer cells to invade through matrigel in vitro was tested by using a trans-cell matrigel invasion chamber system (354480, BD Biosciences). Various cancer cell lines were serum-starved overnight in media containing 0.2% FBS. The following day, invasion chambers were pre-equilibrated prior to the assay by adding 0.5 mL of starvation media to the top and bottom wells. Meanwhile, cancer cells were trypsinized and viable cells were counted using the trypan blue dead cell exclusion dye. Cancer cells were then resuspended at a concentration of 1×10^5 cells/1 mL starvation media, and 0.5 mL of cell suspension, containing 5×10^4 cells, was seeded into each trans-well. […] The basal side of each insert was imaged using an inverted fluorescence microscope (Zeiss Axiovert 40 CFL) at 5× magnification, and the number of DAPI-positive cells was quantified using ImageJ.
The cells were serum starved for 16 hours in 0.2% FBS media in the presence of DMSO or GW3965. […] Meanwhile, cancer cells were trypsinized and viable cells were counted using trypan blue. […] The basal side of each insert was imaged using an inverted fluorescence microscope (Zeiss Axiovert 40 CFL) at 5× magnification, and the number of DAPI-positive cells was quantified using ImageJ.

[2] = system: ApoE promoter fused to ME.1 or ME.2 in MeWo cells; test: ApoE promoter activity assay (luciferase reporter); assay type: cell-based, human; details: 1 μM, 24 hours
Excerpt: The ApoE promoter, consisting of a sequence spanning 980 base pairs upstream and 93 base pairs downstream of the ApoE gene, was cloned into a pGL3-Basic vector (E1751, Promega Corporation, Madison, Wis.) upstream of the firefly luciferase gene using NheI and SacI restriction enzymes. Then, multi-enhancer elements 1 (ME.1) and 2 (ME.2) were cloned directly upstream of the ApoE promoter using MluI and […] restriction enzymes. To assess ApoE promoter- and ME.1/ME.2-driven transcriptional activation by LXR agonists, 5×10^4 MeWo cells were seeded into a 24-well plate. The following day, 100 ng of pGL3-ME.1/ME.2-ApoE promoter construct and 2 ng of pRL-CMV renilla luciferase construct (E2261, Promega) were co-transfected into cells in the presence of DMSO, GW3965, or T0901317 at 1 μM, each condition in quadruplicate. To assess transcriptional activation by LXRα or LXRβ, 5×10^4 MeWo cells expressing a control shRNA or shRNA targeting LXRα or LXRβ were seeded into a 24-well plate. […] After 24 hours, cells were lysed, and cell lysate was analyzed for firefly and renilla luciferase activity using the Dual Luciferase Assay System (E1960, Promega) and a Bio-Tek Synergy NEO Microplate Reader. Firefly luciferase signal was normalized to renilla luciferase signal and all data are expressed relative to the luciferase activity ratio measured in the DMSO-treated control cells.

[3] = system: B16F10 mouse melanoma cells; test: subcutaneous B16F10 tumor growth in mice; assay type: in vivo; details: for primary tumor growth in vivo (FIG. 21): mouse; for suppression of tumor growth by B16F10 cells: 20 mg/kg, tumors 5-10 mm3 at start, immunocompetent mice
[4] = system: extracellular ApoE protein from melanoma cells; test: ApoE ELISA in conditioned media; assay type: cell-based, human; details: MeWo cells, 1 μM, 72 hours
Procedure: Extracellular ApoE levels in serum-free conditioned media from melanoma cells treated with DMSO, GW3965, or T0901317 (1 μM each) were quantified using the ApoE ELISA kit (Innovative Research) at 72 hours following treatment.

[5] = system: MeWo brain metastatic derivative cells; test: brain metastasis assay, intracardiac injection; assay type: in vivo, mouse; details: oral, diet 100 mg/kg
Procedure: Melanoma cells used for in vivo metastasis assays were transduced with a stably expressed retroviral construct encoding a luciferase reporter gene (Ponomarev et al., 2004), allowing us to monitor the in vivo progression of melanoma cells by bioluminescence imaging. The following numbers of melanoma cells, resuspended in 100 μL of PBS, were injected intravenously via the tail-vein: 4×10^4 MeWo cells, 2.5×10^5 HT-144 cells, 2×10^5 SK-Mel-334.2 cells, 5×10^4B 16F10 cells, and 1×10^5YUMM cells. The MeWo, HT-144, and SK-Mel-334.2 cells were injected into 6-8 week-old sex-matched NOD scid mice, while the B16F10 and YUMM cells were injected into 6-8 week-old sex-matched C57BL/6 mice. In all experiments assessing at the effects of GW3965 on metastasis formation, mice were pre-treated on a control diet or a GW3965-supplemented diet (20 mg/kg) for 10 days. To assess the effect of GW3965 treatment on brain metastasis, 1×10^5 MeWo brain-metastatic derivatives were injected intracardially into athymic nude mice. Immediately following injection, mice were randomly assigned to a control diet or GW3965-supplemented diet (100 mg/kg). […]

| Compound | tumor cell invasion across breast, renal cell and pancreatic cancer ([1]; 100 μg/mL at start of assay) | activity of luciferase reporter containing the ApoE promoter fused to ME.1 or ME.2 [2] | primary tumor growth in vivo (FIG. 21) [3] | suppression of tumor growth by B16F10 cells ([3]; oral) | levels of secreted ApoE protein [4] | suppression of tumor growth in mice genetically inactivated for ApoE ([3]; ApoE−/− mice, diet 20 mg/kg) | tumor growth inhibition upon LXRα inactivation ([3]; LXRα−/− mice, diet 20 mg/kg) | ability to suppress melanoma tumor growth upon genetic ablation of systemic LXRβ ([3]; LXRβ−/− mice, diet 20 mg/kg) | reduction in tumor growth by B16F10 cells ([3]; oral, 100 mg/kg) | reduction in growth of established large B16F10 tumors ([3]; tumors ~150 mm3 at start, chow 150 mg/kg) | tumor cell invasion of renal, pancreatic and lung cancer cells ([1]; RCC, PANC1, H460 cells, 1 μM for 72 hours) | brain colonization [5] | systemic dissemination [5] |
| --- | --- | --- | --- | --- | --- | --- | --- | --- | --- | --- | --- | --- | --- |
| recombinant ApoE3: recombinant human ApoE3 (4696, BioVision) | inhibited |  |  |  |  |  |  |  |  |  |  |  |  |
| O=S(=O)(c1ccccc1)N(CC(F)(F)F)c1ccc(C(O)(C(F)(F)F)C(F)(F)F)cc1 [T0901317 1] |  | enhance | inhibit | 61% | elevated levels |  |  |  |  |  |  |  |  |
| O=C(O)Cc1cccc(OCCCN(Cc2cccc(C(F)(F)F)c2Cl)CC(c2ccccc2)c2ccccc2)c1 [GW3965 2, 3-[3-[N-(2-Chloro-3-trifluoromethylbenzyl)-(2,2-diphenylethyl)amino]propyloxy] phenylacetic acid hydrochloride] |  | enhance | inhibit | 67% | elevated levels | completely ineffective | had no effect | blocked | 80% | roughly 50% | inhibition | inhibited | inhibited |
